Results reported in publication PMC8743659, “C1632 suppresses the migration and proliferation of non‐small‐cell lung cancer cells involving LIN28 and FGFR1 pathway” (Journal of Cellular and Molecular Medicine, 2021).
Entries after “also recorded” stand apart in the source; their conditions may differ.

What was measured:
A549R xenograft tumours = test: NSCLC A549R xenograft model; assay type: in vivo, mice
Description: A total of 1.0 × 10^6 A549R cells were inoculated subcutaneously into the dorsal flank of the nude mice in 100 µl phosphate‐buffered saline (PBS). Mice were randomly divided into control and C1632 treatment groups (n = 4 per group). Mice were i.p. injected every other day for 18 days (A549R) at a dose of 30 mg/kg in 100 µl PBS per mouse. The tumours were resected, and their size was estimated from the measurements of weight or the longest diameter across the tumour and the corresponding perpendicular diameter.

[1] = system: focal adhesion kinase (FAK); test: Western blot of p-FAK; assay type: cell-based, human; conditions: A549 and A549R cells, 5 days
Description: (§1) The total cell protein was extracted and denaturized at 95°C for 10 min. Samples were separated in SDS‐PAGE gel, then transferred to a PVDF membrane. Then this membrane was blocked with 5% non‐fat milk (solved in TBST) for 2.5 h at room temperature. Blots were probed with relevant primary antibodies against FGFR1 (CST), p‐FGFR1 (CST), MAPK (CST), p‐MAPK (CST), FAK (CST), p‐FAK (CST), MMP‐9 (CST), LIN28B (CST), GAPDH (CST), and β‐actin (proteintech) overnight at 4°C, respectively. Then the lanes were detected with HRP‐conjugated secondary antibodies and visualized using WESTAR SUPERNOVA kit (CYANAGEN).

[2] = system: focal adhesion kinase (FAK); test: Immunofluorescence assay of FAK; assay type: cell-based, human; conditions: A549R cells, 5 days, concentration-dependent
Description: Performing the immunofluorescence (IF) assay as previously described.[39] Briefly, cells were seeded to slide, fixed with 4% paraformaldehyde, and permeabilized using 0.5% Triton X‐100. Next, cells were incubated with primary antibodies against FAK (CST), followed by incubating with secondary antibodies (DyLight 488‐conjugated anti‐mouse). DAPI was used to stain the nuclear. The fluorescence image was captured by using Nikon Ti microscope and the quantitative analysis was carried out by ImageJ.

A549 cells [3] = test: Colony formation assay; assay type: cell-based, human; conditions: A549, 15, 30 and 60 mg/L, dose-dependent
Description: (§2) First, cells were treated with indicated concentrations of C1632 or 0.01% DMSO for 5 days. Then these cells were separated into single cells that were directly used for cloning. During the process of cloning, C1632‐treated A549 or A549R cells were still maintained in DMEM plus 10% FBS medium containing the indicated concentration of C1632 (15, 30, and 60 mg/L), while the control group was cultured with 0.01% DMSO. Both culture media were changed for every 2 days until 10 days. The number of forming colonies in C1632 or 0.01% DMSO‐treated groups was counted and the images were taken.

A549R cells [4] = test: Colony formation assay; assay type: cell-based, human; conditions: A549R, 15, 30 and 60 mg/L, dose-dependent; stronger than in A549
Description: as §2

A549 cells [5] = test: Edu staining assay; assay type: cell-based, human; conditions: A549, 15, 30 or 60 mg/L, 5 days, dose-dependent
Description: (§3) Edu staining assay was carried out according to Edu staining Kit (Beyotime). First, A549 or A549R cells were seeded in 6‐well plates and cultured in RPMI medium 1640 containing 10% FBS, then treated with C1632 (15, 30, or 60 mg/L) for 5 days. Subsequently, cells were incubated with Edu for 3 h, fixed with 4% paraformaldehyde for 15 min, and permeated with 0.3% Triton X‐100 for another 15 min. Then cells were incubated with the Click Reaction Mixture provided by Edu staining Kit for 30 min at room temperature in dark and then stained with DAPI. Finally, the stained cells were scanned and imaged under Nikon Ti microscope.

A549R cells [6] = test: Edu staining assay; assay type: cell-based, human; conditions: A549R, 15, 30 or 60 mg/L, 5 days, dose-dependent
Description: as §3

LIN28 = test: qPCR of LIN28 mRNA in NSCLC cells; assay type: cell-based, human; conditions: A549 and A549R cells, 15, 30 and 60 mg/L, 5 days; especially in A549R
Description: Total RNA was extracted using RNAiso Plus (Takara) according to the manufacturer's instructions. cDNA was synthesized using PrimeScript II first‐strand cDNA Synthesis Kit (Takara), followed by amplification with RealStar Power SYBR Mixture (GenStar). miRNAs were quantified using the stem‐loop method, and U6 snRNA was adopted as internal control. Specific primer sequences were designed as previously reported.[40] qPCR was carried out with a LightCycler 480 Real‐Time PCR system (Roche). Data were analysed using the comparative Ct (2−ΔΔCt) method.[41] All experiments were performed in three independent experiments. qPCR primers for mRNA detection were as follows: GAPDH‐forward 5′‐[…]‐3′; GAPDH‐reverse 5′‐[…]‐3′; LIN28A‐forward 5′‐[…]‐3′; LIN28A‐reverse 5′‐GCGGTCATGGACA GGAAGCC‐3′; LIN28B‐forward 5′‐[…]‐3′; LIN28B‐reverse 5′‐[…]‐3′.

[7] = system: matrix metalloproteinase-9 (MMP-9); test: Western blot of MMP-9; assay type: cell-based, human; conditions: A549 and A549R cells, 5 days
Description: as §1

A549 cells [8] = test: Cell adhesion assay; assay type: cell-based, human; conditions: A549, fibronectin-coated plate, concentration-dependent
Description: (§4) The cell adhesion assay was performed as indicated previously.[38] Briefly, the 96‐well plate was coated with human fibronectin (Millipore), and then cells were seeded into the 96‐well plate and cultured for another 1 h at 37°C in a 5% CO2 incubator. Finally, rinsing the plate before fixed with 10% formalin and stained with crystal violet. As followed, wash the plate with ddH2O and add 100 μl acetic acid (33%) into the plate to dissolve the crystal violet. The absorbance at 560 nm was detected by Synergy H1 Multi‐Mode Reader (BioTek). Relative number of cells attaching to extracellular matrix was evaluated using the following equation: mean OD of treated cells/mean OD of control cells.

A549R cells [9] = test: Cell adhesion assay; assay type: cell-based, human; conditions: fibronectin-coated plate, concentration-dependent
Description: as §4

A549 cells [10] = test: SA-β gal staining assay; assay type: cell-based, human; conditions: A549, 15, 30 and 60 mg/L, 5 days
Description: (§5) The assay was set up following the β‐galactosidase (SA‐β gal) staining Kit, which was obtained from Sigma. In brief, cells were washed once with PBS and fixed with stationary liquid provided in the kit at room temperature for 15 min. Next, the cells were incubated overnight at 37°C in dark with the 1 ml working solution containing 0.05 mg/ml 5‐bromo‐4‐chloro‐3‐indolyl‐b‐d‐galactopyranoside (X‐gal) and observed under a normal light microscope (Nikon).

A549R cells [11] = test: SA-β gal staining assay; assay type: cell-based, human; conditions: A549R, 15, 30 and 60 mg/L, 5 days
Description: as §5

With `CC(=O)N(C)c1cccc(-c2ccc3nnc(C)n3n2)c1` [C1632] the “body weight of mice” value (A549R xenograft tumours; 30 mg/kg every 2 days for 18 days) was “did not affect”, the “growth of xenograft tumour cells (tumour volume over treatment period)” value (A549R xenograft tumours; 30 mg/kg every 2 days for 18 days, time-dependent) was “suppressed” and the “tumour size (weight), mean ± SD” value (A549R xenograft tumours; 30 mg/kg every 2 days, after 18 days, n = 4, untreated 2.35 ± 0.43 g, p < 0.05) was 1.36 ± 0.27 g. The “phosphorylation of FAK” value [1] was “efficiently decreased”, the “distribution and foci formation of FAK” value [2] was “reduced” and the “formation of colony units” value (A549 cells [3]) was “inhibited”. For the same compound, the “formation of colony units” value (A549R cells [4]) was “inhibited”, the DNA replication (A549 cells [5]) was “significant inhibition” and the DNA replication (A549R cells [6]) was “significant inhibition”. The “LIN28 mRNA levels” value (LIN28) was “decreased”, the “expression of MMP-9” value [7] was “efficiently decreased” and the “cell adhesion to the matrix” value (A549 cells [8]) was “significant decrease”. For the same compound, the “cell adhesion to the matrix” value (A549R cells [9]) was “significant decrease”, the “senescence (β-gal positive cells)” value (A549 cells [10]) was “did not induce the senescence; also recorded: did not significantly increase” and the “senescence (β-gal positive cells)” value (A549R cells [11]) was “induce the senescence”.
